Experimental data taken from patent publication US9745345B2, “Anti-tumor polypeptides and method for preparing anti-tumor drugs comprisng the same” (priority 2013, dated 2017).
Square brackets hold non-standard residues; d marks the D form. Ends that are not written are not given here. pS = N[C@@H](COP(=O)(O)O)C(=O)O; Ahx = NCCCCCC(=O)O

How the values were obtained:
[1] = system: Human melanoma A375 cells; assay: Human melanoma A375 subcutaneous xenograft in BALB/c nude mice, intratumoral injection of polypeptides; format: in vivo
Experimental: Human melanoma A375 cells in the logarithmic phase of growth were cultured under sterile conditions to prepare a 5×10^6/200 μL cell suspension, and 200 μL cell suspension was separately injected into BALB/c nude mice subcutaneously. An electronic digital vernier caliper was used to measure the long-axis and short-axis diameters of the transplanted tumors, and the formula: Tumor Volume (TV)=½×Long-axis Diameter×Short-axis Diameter^2 was used to calculate the volume of the tumors. The mice were randomly grouped when the tumor volume reach about 100 mm^3.
Polypeptides JWA-1, JWA-2, JWA-3, and an equivalent peptide blend (Pep) of the three polypeptides were injected into the tumors of the various groups of mice respectively, and the doses used were 25 mg/kg and 10 mg/kg, respectively; the negative control group was injected with an equal amount of sterile phosphate-buffered saline (PBS). The polypeptide injection groups and the control group were administered on alternate days (48 hrs interval) by injection for 5 times; and the body weight of the mice and their tumor diameters were measured at each administration. After completion of the experiment the mice were sacrificed after anesthesia, tumors were separated from the bodies and their weight were measured.
In this example, the method for dorsal subcutaneous tumor bearing of BALB/c nude mice by inoculation of A375 cells is the same as Example 2.
The aforementioned BALB/c nude mice inoculated with human melanoma A375 cells by intratumoral injection were separately treated using polypeptide JWA-1 of low dose (5 mg/kg), medium dose (10 mg/kg) and high dose (15 mg/kg); at the same time, a sterile PBS negative control group and a 10 mg/kg non-pep injection group (referred to simply as “non-pep group”, the polypeptide sequence used was SEQ ID NO: 14; […]-EEMQR, the N-terminus thereof being acetylated and the C-terminus thereof amidated) were established. The establishment of the non-pep group was for observing whether JWA polypeptides have any specific anti-tumor effect.
To verify the impact of phosphorylation of S in polypeptide JWA-1 on the anti-tumor effect thereof, a non-phosphorylated polypeptide JWA-7 injection group (10 mg/kg) was added in the aforementioned experiment.
(§1) The various groups were administered by intratumoral injection on alternate days for 5 times consecutively; and the body weight of the mice and their tumor diameters were measured at each administration. After completion of the experiment the mice were sacrificed after anesthesia, tumors were separated from the bodies and the tumor weights were measured.
The BALB/c nude mice inoculated with human melanoma A375 cells were separately treated using 10 mg/kg polypeptides JWA-1, JWA-4, JWA-5, and JWA-6; at the same time, a 10 mg/kg non-pep injection group (referred to simply as “non-pep group”, the polypeptide sequence used was the same as Example 3) was established.
The mice with transplanted tumors in this example were the same as Example 2, and the experimental method used therein was also the same as Example 2. The various polypeptides were administered by intratumoral injection at a dose of 10 mg/kg, and a non-pep injection group (referred to simply as “non-pep group”, the polypeptide sequence used was the same as Example 3) was established.

A375 cells [2] = assay: Western Blot of apoptosis-related molecules (PARP-1, caspase-3) in A375 cells; format: cell-based, human; conditions: A375, 24 hrs
Experimental: (§2) The combined effect of ATO and polypeptide JWA-6 on the self-destruction of protein expression was also determined A375 cells in the logarithmic phase of growth were conventionally digested and 5×10^5 cells were inoculated evenly in a 60 mm cell culture dish, and different doses of ATO were used to individually treat the cells for 24 hrs, or different doses of ATO in combination with different doses of polypeptide JWA-6 were used to treat the cells for 24 hrs, after which 0.18 mL of RIPA lysis buffer containing 0.5% phenylmethanesulfonyl fluoride (PMSF) was added to extract protein. After centrifugation at 12000×g for 15 minutes, the supernatant was taken, protein concentration was examined. Based on the molecular weight measured, a polyacrylamide gel having a suitable concentration was chosen for protein electrophoresis where each well was added with […] of protein, and the conditions for electrolysis were 60 V, 30 minutes and 90 V, 1-1.5 hrs. After completion of the electrolysis, semi-dry transfer was performed to transfer the protein from the gel onto a polyvinylidene difluoride (PVDF) membrane. After completion of the transfer, the membrane was blocked with 5% skim milk at room temperature for 1-2 hrs. Then, the membrane was washed 3 times (each lasting 5 minutes) using Tris-buffered Saline with Tween (TBST) containing 0.1% Tween-20, and incubation of the corresponding antibody was performed overnight at 4° C. On the next day, membrane was washed 3 times (each lasting 5 minutes) using Tris-buffered Saline with Tween (TBST) containing 0.1% Tween-20; incubation of secondary antibody was performed at room temperature for 1-2 hrs; and again membrane was washed 8 times (each lasting 5 minutes) using Tris-buffered Saline with Tween (TBST) containing 0.1% Tween-20. The membrane was added with enhanced chemiluminescence (ECL) liquid and exposed.
Polypeptide CPP-JWA-6 at a dose of 20 μM, 50 μM was applied individually and applied in combination with ATO (5 μM) on A375 cells (as shown in FIG. 40) and SGC7901 cells (as shown in FIG. 41) for 24 hrs before protein was extracted, and the Western Blot method of Example 7 was used to examine the changes in apoptosis-related molecules.

SGC7901 cells = assay: Western Blot of PARP-1 in SGC7901 cells; format: cell-based; conditions: 24 hrs
Experimental: as §2, with “exposed. […]” for “exposed.”

[3] = system: Human Melanoma A375 Cells; assay: Cell proliferation with CCK8 reagent, A375 cells; format: cell-based; conditions: 0-50 μM, 24, 48 and 72 hrs, in comparison with the control group
Experimental: (§3) B16F10 or A375 cells in the logarithmic phase of growth were trypsinized and seeded in a 96-well plate (5×10^3 cells/well), and were treated with different doses (0 μM, 5 μM, 10 μM, 25 μM, 50 μM) of polypeptide JWA-1, JWA-5, JWA-6 or non-pep (the polypeptide sequence used was the same as Example 3) for 24 hrs, 48 hrs and 72 hrs, respectively. The original culture medium was removed from the 96 wells at the indicated time and cell proliferation was determined with CCK8 reagent according to the manufacturer's instructions. Four duplicate samples were taken from each group and the experiments were repeated for three times.

[4] = system: Mouse Melanoma B16F10 Cells; assay: Cell proliferation with CCK8 reagent, B16F10 cells; format: cell-based; conditions: 0-50 μM, 24, 48 and 72 hrs, in comparison with the control group
Experimental: as §3

A375 cells [5] = assay: Cytoactivity of A375 cells treated with ATO alone or with polypeptides in combination with ATO; format: cell-based, human; conditions: polypeptide 50-500 μM in combination with ATO 0.5-5 μM, 24 and 48 hrs
Experimental: Firstly, the dose and time for treatment of A375 cells with ATO were determined. A375 cells in the logarithmic phase of growth were conventionally digested and seeded in a 96-well plate (5×10^3 cells/well), and different doses (5 μM, 10 μM, 25 μM, 50 μM) of ATO were used to treat the cells for 24 hrs and 48 hrs after cell attachment. It was discovered that the activity of A375 cells was reduced by 40% after 24 hrs of treatment with 5 μM ATO (as shown in FIG. 24), and that the cell growth inhibition rate was approximately 100% after 48 hrs of treatment with different doses of ATO (as shown in FIG. 25). Therefore, ATO with a concentration smaller than or equal to 5 μM was chosen to treat the cells for 24 hrs for subsequent reference of dose and time for combined medication.

[6] = system: human melanoma A375 cells; assay: Human melanoma A375 subcutaneous xenograft in NOD/SCID mice, intraperitoneal injection of polypeptides; format: in vivo; conditions: Example 5, alternate days, 5 times
Excerpt: The polypeptide designed and synthesized in this example was JWA-6+RGD whose sequence was SEQ ID NO: 7, i.e. 6-aminocaproic acid-FPGSDRF-GGGG-RGD, wherein amino acid S was phosphorylated. In addition, the N-terminus of the polypeptide sequence was acetylated and the C-terminus thereof was amidated during synthesis to prevent rapid degradation of the polypeptide. In this example, non-obese diabetic/severe combined immunodeficiency (NOD/SCID) mice were chosen for tumor-bearing model and the method for dorsal subcutaneous tumor bearing by inoculation of human melanoma A375 cells is the same as Example 2. The mice were randomly divided into four treatment groups after the tumors grew to a volume of about 100 mm^3. […]
as §1, with “Then, 50 mg/kg polypeptide JWA-6, 10 mg/kg polypeptide JWA-6+RGD, 50 mg/kg polypeptide JWA-6+RGD, and 50 mg/kg non-pep (the polypeptide sequence used was the same as Example 3) were injected intraperitoneally. The” for “The”, “with” for “by intratumoral”, “weights” for “weights were”
Thereafter, the tumor bearing mice were obtained using the foregoing method of this example and divided into seven injection groups which were intraperitoneally injected with polypeptides JWA-6+RGD, JWA-6+RGD0, JWA-6+RGD1, JWA-6+RGD3, JWA-6+RGD7, JWA-6+RGD10, and non-pep (the polypeptide sequence used was the same as Example 3) at a dose of 50 mg/kg. The various groups were administered by intraperitoneal injection on alternate days for 5 times consecutively; and the body weight of the mice and their tumor diameters were measured at each administration. The day of first administration was taken as the first day, and the experiment was stopped on the twelfth day when the mice were sacrificed after anesthesia, and tumors were separated from the bodies and the tumor weights were measured.

[7] = 20, 50 μM polypeptide combined with ATO 5 μM, in comparison with ATO alone
[8] = polypeptide alone at a dose not exceeding 50 μM
[9] = Example 3, 10 mg/kg intratumoral, alternate days, 5 times, 10 mg/kg
[10] = Example 4, 10 mg/kg intratumoral, alternate days, 5 times, compared among polypeptides

6-aminoacetic acid-EEMQR [non-pep, reference compound]
tumor inhibition effect ([1]; Example 3, 10 mg/kg intratumoral, alternate days, 5 times): no tumor inhibition effect

6-aminocaproic acid-(R)9—FPGSDRF ([Ahx]RRRRRRRRRFPG[pS]DRF) [CPP-JWA-6]
PARP-1 spliceosome (A375 cells [2]; [7]): significantly increased | caspase-3 spliceosome (A375 cells [2]; [7]): significantly increased | changes in the expression of PARP-1 (A375 cells [2]; [8]): will not cause any changes | PARP-1 spliceosome (SGC7901 cells; [7]): significantly increased | changes in the expression of PARP-1 (SGC7901 cells; [8]): will not cause any changes

6-aminocaproic acid-FFPGSDRFA [JWA-1] ([Ahx]FFPG[pS]DRFA)
inhibition effect on subcutaneous tumor growth in nude mice ([1]; Example 2, 10 mg/kg intratumoral, alternate days, 5 times, in comparison with PBS control group): more significant | tumor weight to body weight ratio ([1]; Example 2, 10 mg/kg intratumoral, alternate days, 5 times, in comparison with PBS control group, P<0.05): smaller | tumor inhibition effect [1, 9]: significant tumor inhibition effect | dose-effect relation of tumor inhibition ([1]; Example 3, 5, 10 and 15 mg/kg intratumoral): no trend of enhanced effect was detected along with dose increase | inhibition effect on A375 cells [3]: no inhibition effect | inhibition effect on B16F10 cells [4]: no inhibition effect | cytoactivity of A375 cells, combined use with ATO (A375 cells [5]): no synergistic effect

6-aminocaproic acid-FFPGSDRFA [JWA-7] ([Ahx]FFPGSDRFA)
tumor inhibition effect [1, 9]: no tumor inhibition effect

6-aminocaproic acid-FPGSDRF-GGGG-RGD (Ac-[Ahx]FPG[pS]DRFGGGGRGD-NH2; SMILES CC(=O)NCCCCCC(=O)N[C@@H](Cc1ccccc1)C(=O)N1CCC[C@H]1C(=O)NCC(=O)N[C@@H](COP(=O)(O)O)C(=O)N[C@@H](CC(=O)O)C(=O)N[C@@H](CCCNC(=N)N)C(=O)N[C@@H](Cc1ccccc1)C(=O)NCC(=O)NCC(=O)NCC(=O)NCC(=O)N[C@@H](CCCNC(=N)N)C(=O)NCC(=O)N[C@@H](CC(=O)O)C(N)=O) [JWA-6+RGD]
tumor inhibition effect ([6]; 10 mg/kg intraperitoneal): a certain degree of tumor inhibition effect | tumor inhibition effect ([6]; 50 mg/kg intraperitoneal): better tumor inhibition effect

6-aminocaproic acid-GSD [JWA-4]
tumor inhibition effect [1, 10]: significantly worse than that of polypeptide JWA-6

6-aminocaproic acid-PGSDR ([Ahx]PG[pS]DR) [JWA-5]
tumor inhibition effect [1, 10]: significantly worse than that of polypeptide JWA-6 | inhibition effect on A375 cells [3]: no inhibition effect | inhibition effect on B16F10 cells [4]: no inhibition effect
